Patent US20140274995A1, “PARENTERAL CEFTOLOZANE ANTIBIOTIC COMPOSITIONS” (Cubist Pharmaceuticals, Inc., priority 2013, published 2014)

How the values were obtained:
[1] = Comparison between stabilizing reagents, lyophilized ceftolozane samples stored at 60° C. for 7 days, HPLC purity; type: physicochemical; details: without any stabilizing agent
[2] = Residual rate of ceftolozane without stabilizing agent after 3 days at 70° C., HPLC; type: physicochemical; details: 100 mg of ceftolozane, no stabilizing agent
Experimental: The purity of the ceftolozane in a composition comprising 100 mg ceftolozane was also evaluated with no stabilizing agent after 3 days at 70° C. by measuring the residual rate. The residual rate is measured by detecting the amount of ceftolozane in a sample before and after a stability test using HPLC, and determining the percentage of ceftolozane lost during the stability test.

Cn1c(N)c(NC(=O)NCCN)c[n+]1CC1=C(C(=O)[O-])N2C(=O)[C@@H](NC(=O)/C(=N\OC(C)(C)C(=O)O)c3nsc(N)n3)[C@H]2SC1 [Ceftolozane, (6R,7R)-3-[(5-amino-4-{[(2-aminoethyl)carbamoyl]amino}-1-methyl-1H-pyrazol-2-ium-2-yl)methyl]-7-({(2Z)-2-(5-amino-1,2,4-thiadiazol-3-yl)-2-[(1-carboxy-1-methylethoxy)imino]acetyl}amino)-8-oxo-5-thia-1-azabicyclo[4.2.0]oct-2-ene-2-carboxylate]
overall decrease in purity [1]: 5.88% | residual rate [2]: 51.2%
